Values quoted from earlier work in patent US8952004B2, “CXCR3 receptor antagonists” (Boehringer Ingelheim International GmbH, priority 2010, dated 2015).

Tested on: atherosclerotic lesion formation
Settings: LDL receptor knockout model, dosed prophylactically

In the case of `CCOc1ccc(-n2c(C(C)N(Cc3cccnc3)C(=O)Cc3ccc(F)c(C(F)(F)F)c3)nc3ncccc3c2=O)cc1` (stereo not shown) [NBI-74330], the atherosclerotic lesion formation is given as “significantly attenuated atherosclerotic lesion formation”.
